Values quoted from earlier work as cited in patent US5763196A, “Assays using cross-linked polypeptide fragments of β-galactosidase” (priority 1996, dated 1998).

System: interleukin-1-β converting enzyme (ICE protease)

CC(=O)N[C@@H](Cc1ccc(O)cc1)C(=O)N[C@H](C(=O)N[C@@H](C)C(=O)N[C@@H](CC(=O)O)C(=O)CCl)C(C)C [Ac-Tyr-Val-Ala-Asp-*]
inhibition of ICE protease (in words) (Nature 375:78-81 (1995)): potent inhibitor

CNC(=O)[C@H](CC(=O)O)NC(=O)[C@H](C)NC(=O)[C@@H](NC(=O)[C@H](Cc1ccc(O)cc1)NC(C)=O)C(C)C [Ac-Tyr-Val-Ala-Asp-NH-CH3]
minimal and best peptide substrate found to date (Thornberry, Nature 356:768-74 (1992)): minimal and best peptide substrate
